In brackets after ≈: the same amount, converted by molar mass. Where two headings read alike, the source gives them in different places.
What was measured:
P. vulg. = settings: planktonic; cited from earlier work
P. aerug. = settings: planktonic; cited from earlier work
[1] = test system: Aerobic Bacterial Biofilms; assay: Log reduction of sessile microorganisms in aerobic biofilm (Example 2, Procedure A); format: cell-based, predominantly Pseudomonas species; settings: for log reduction at 50 ppm / log reduction at 100 ppm / log reduction at 200 ppm: Pseudomonas, 7.4 represents complete kill
Description: (§1) Approximately 20 ml of sterile Bacto TGE broth (Difco Labs) were placed in a sterile Petri dish (15×100 mm). To this media, 10 ml of a 24 hour culture of the aerobic organisms to be tested were added. Sterile, stainless steel penicylinders (10 mm O.D., 7 mm I.D., 10 mm long) were then placed in the inoculated media. The cylinders were placed in the dish either on-end or on-side. The Petri dish containing the cylinders was then incubated at 37° C. for 48 hours. At that time, cylinders were individually removed aseptically using forceps, blotted on sterile filter paper, and washed three times by dipping in sterile saline solution. This procedure was used to ensure that only organisms that were firmly attached in the biofilm were tested.
(§2) Two biofilm-coated cylinders were then carefully dropped into separate 10 ml test tubes containing biocide solutions of varying concentrations. After one hour and four hour contact times, a cylinder was aseptically transferred to a fresh tube of TGE broth and vortexed for 30 seconds to remove all sessile organisms. The resulting broth suspension was then serially diluted and plated using TGE agar for enumeration. Plates were incubated for 48 hours at 37° C. before counting.
(§3) To minimize error, all biocide concentration/contact time points reported below were tested in duplicate and the results averaged. Results are reported as log reduction of microorganisms compared to control cylinders treated in the same manner except that no biocide was employed.
Respective samples of the five compounds were tested against the sessile microorganisms embedded in biofilms. The biofilm was comprised of a variety of microorganisms, but contained predominantly Pseudomonas species cultivated using Procedure A. The number of organisms were counted after one hour and four hours of contact.

S. aureus = settings: planktonic; cited from earlier work
K. pneum. = settings: planktonic; cited from earlier work
C. albic. = settings: planktonic; cited from earlier work
[2] = test system: Sessile Anaerobic Bacterial Biofilms (SRB); assay: Log reduction of sessile sulfate-reducing bacteria in biofilm on mild steel penicylinders (Example 3, Procedure B); format: cell-based; settings: for log reduction at 100 ppm / log reduction at 250 ppm / log reduction at 10 ppm / log reduction at 25 ppm / log reduction at 50 ppm: 4 represents complete kill; for concentration required to achieve the same level of effectiveness as OPA: SRB biofilm, compared with OPA 10 ppm, 4 hours
Description: SRB-containing media were prepared as follows:
14.5 g of Bacto Sulfate API Broth (Difco Labs) and 2.0 g Bacto Agar (Difco Labs) were added to 1000 ml distilled water. The solution was heated and stirred until all components were dissolved. A 1% solution of sodium thioglycollate in distilled water was also prepared. Both solutions were then autoclaved at 121° C. for 30 minutes. After cooling, 5 g of the sodium thioglycollate solution was added to the media mixture.
Mild steel penicylinders (10 mm O.D., 7 mm I.D., 10 mm long) were cleaned by soaking for 10 minutes in 0.5% hydrochloric acid. Cylinders were then rinsed three times with distilled water and dried before use.
A 4 oz screw-capped bottle was purged with argon to remove oxygen, capped and then autoclaved. After cooling, 100 ml of sterile SRB media was added to this bottle. Cleaned penicylinders were then added along with 10 ml of a five day old SRB culture. All operations were conducted under a constant stream of argon to minimize oxygen levels. The bottle was then incubated for 7-14 days (depending on the SRB used) at 37° C. At that time, cylinders were individually removed aseptically using forceps and blotted on sterile filter paper.
Two biofilm-coated cylinders were then carefully dropped into separate 10 ml test tubes of deaerated biocide solutions of varying concentrations. All of the biocide and control solutions contained 30 ppm of a non-ionic nonyl phenol ethoxylate surfactant (TERGITOL® NP-4, Union Carbide Chemicals and Plastics Company Inc., Danbury, CT). After one hour and four hour contact times, a cylinder was removed, blotted on sterile filter paper, and placed into a commercially available SRB vial (C&S Laboratories, Tulsa, OK). The vial was then sonicated (Bransonic Model 12) for 30 seconds to remove sessile organisms. The resulting solution was serially diluted into additional SRB vials for enumeration. Vials were grown for 28 days at 37° C. before reading. Blackening of the vials was used as an indication of growth.
as §3
A SRB culture was obtained from a water-flooded oil well in Alaska. The bacteria were then cultivated on the walls of the steel penicylinders using Procedure B described above. Respective samples were then contacted with glutaraldehyde, formaldehyde or OPA for one and four hours with the following results: […]

[3] = test system: Aerobic Bacterial Biofilms (oil field isolate); assay: Log reduction of sessile aerobic bacteria in biofilm on stainless steel penicylinders (Example 1, Procedure A); format: cell-based, predominantly Pseudomonas species; settings: for log reduction at 250 ppm / log reduction at 500 ppm / log reduction at 1000 ppm / log reduction at 10 ppm / log reduction at 25 ppm / log reduction at 50 ppm / log reduction at 5 ppm: Pseudomonas; for log reduction at 10 ppm / log reduction at 25 ppm / log reduction at 50 ppm / log reduction at 5 ppm: 5.1 represents complete kill
Description: as §1, §2, §3
An oil field isolate of aerobic bacteria was utilized in all aerobic biofilm experiments. This culture was taken from a water-flooded oil well in Texas and was tentatively identified as containing predominantly Pseudomonas species. The biofilms were developed following above Procedure A. Respective samples were treated with various concentrations of the biocides listed below and the number of bacteria were counted after one hour and four hours of contact.

sessile microorganisms = settings: Pope et al.; cited from earlier work
biofilm deposits = settings: dynamic laboratory reactors, waterflood pipeline conditions; Eagar et al.; cited from earlier work
Solubility in water = format: physicochemical; settings: 25° C., read-out: limit of solubility in water
[4] = test system: Planktonic Anaerobic Bacteria (SRB); assay: Log reduction of planktonic sulfate-reducing bacteria (Example 4, Procedure C); format: cell-based
Description: A stock culture of the SRB to be tested was grown in a commercial SRB vial for 4 days at 37° C. The vial was then purged for approximately 30 seconds with argon to remove excess hydrogen sulfide. At that time a series of SRB vials were each inoculated with 0.1 ml of this stock culture. These vials were then incubated at 37° C. for 4 days. Each of these vials was then purged with argon. Appropriate stock solutions of biocide were prepared so that additions of 0.1-1.0 ml provided the desired concentration of biocide in each SRB vial. After 1 hour and 4 hour contact times, 1 ml aliquots were removed from each vial and were injected into fresh SRB vials. These vials were then serially diluted for enumeration.
as §3
The same sample of planktonic SRB as used in Example 3 was cultivated following above Procedure C. Respective samples of bacteria were treated with varying concentrations of OPA and the log reduction in the number of bacteria was recorded in each case.

[5] = 1 hr contact, read-out: log reduction after 1 hr
[6] = 4 hr contact, read-out: log reduction after 4 hr
[7] = 1 h, read-out: log reduction after 1 hr
[8] = 4 h, read-out: log reduction after 4 hr

O=Cc1ccccc1C(=O)O [CB, 2-carboxybenzaldehyde]
MIC (P. vulg.): 1.0 mMole % | MIC (P. aerug.): 2.5 mMole % | log reduction at 50 ppm [1, 5]: 0 | log reduction at 50 ppm [1, 6]: 0 | log reduction at 100 ppm [1, 5]: 0 | log reduction at 100 ppm [1, 6]: 0.1 | log reduction at 200 ppm [1, 5]: 0.6 | log reduction at 200 ppm [1, 6]: 0.5 | MIC (S. aureus): 0.5 mMole % | MIC (K. pneum.): 2.5 mMole % | MIC (C. albic.): 1.0 mMole %

O=Cc1cccc(O)c1O [DHB, 2,3-dihydroxybenzaldehyde]
MIC (P. vulg.): 0.25 mMole % | MIC (P. aerug.): 0.25 mMole % | log reduction at 50 ppm [1, 5]: 0 | log reduction at 50 ppm [1, 6]: 0 | log reduction at 100 ppm [1, 5]: 0.5 | log reduction at 100 ppm [1, 6]: 0 | log reduction at 200 ppm [1, 5]: 1.1 | log reduction at 200 ppm [1, 6]: 0.2 | MIC (S. aureus): 0.25 mMole % | MIC (K. pneum.): 0.05 mMole % | MIC (C. albic.): < 0.025 mMole %

C=O [FA, formaldehyde]
log reduction at 100 ppm [2, 5]: < 2 | log reduction at 100 ppm [2, 6]: < 2 | log reduction at 250 ppm [2, 5]: < 2 | log reduction at 250 ppm [2, 6]: 3 | concentration required to achieve the same level of effectiveness as OPA [2]: Significantly higher concentrations | log reduction at 250 ppm [3, 7]: 2 | log reduction at 500 ppm [3, 7]: 2.6 | log reduction at 1000 ppm [3, 7]: 5.1 | log reduction at 250 ppm [3, 8]: 5.1 | log reduction at 500 ppm [3, 8]: 5.1 | log reduction at 1000 ppm [3, 8]: 5.1 | performance in tests (sessile microorganisms): performed well in one test but poorly in another test

O=CCCCC=O [GA, glutaraldehyde]
removing biofilm deposits and controlling number of viable organisms (biofilm deposits): effective in removing biofilm deposits and controlling the number of viable organisms | log reduction at 100 ppm [2, 5]: 3 | log reduction at 100 ppm [2, 6]: 4 | concentration required to achieve the same level of effectiveness as OPA [2]: Significantly higher concentrations | log reduction at 10 ppm [3, 5]: 0.1 | log reduction at 10 ppm [3, 6]: 0.7 | log reduction at 25 ppm [3, 5]: 0.3 | log reduction at 25 ppm [3, 6]: 1.7 | log reduction at 50 ppm [3, 5]: 5.1 | log reduction at 50 ppm [3, 6]: 5.1

O=Cc1ccccc1C=O [OPA, ortho-phthalaldehyde]
MIC (P. vulg.): 0.25 mMole % | MIC (P. aerug.): 0.25 mMole % | log reduction at 50 ppm [1, 5]: 2.9 | log reduction at 50 ppm [1, 6]: 7.4 | log reduction at 100 ppm [1, 5]: 3.4 | log reduction at 100 ppm [1, 6]: 7.4 | log reduction at 200 ppm [1, 5]: 6 | log reduction at 200 ppm [1, 6]: 7.4 | effectiveness against sessile microorganisms in biofilms versus other aldehydes ([1]; other aldehydes at four times the concentration of OPA): surprising effectiveness | log reduction at 10 ppm [2, 5]: 3 | log reduction at 10 ppm [2, 6]: 4 | log reduction at 25 ppm [2, 5]: 3 | log reduction at 25 ppm [2, 6]: 4 | log reduction at 50 ppm [2, 5]: 4 | log reduction at 50 ppm [2, 6]: 4 | MBC ([2]; Example 3, read-out: OPA concentrations at which a complete kill of sessile microorganisms occurred (as low as)): 10 to 50 µg/mL (≈ 74.6 to 373 µM) | MBC ([2]; within 4 hours, read-out: concentration that completely kills all sessile anaerobic organisms in the biofilm): 10 µg/mL (≈ 74.6 µM) | MIC (S. aureus): 0.25 mMole % | solubility (Solubility in water): ~50 mg/mL (≈ 373000 µM) | log reduction at 100 ppm ([4]; 1 hr contact, 4 represents complete kill, read-out: log reduction after 1 hr): 0 | log reduction at 100 ppm ([4]; 4 hr contact, 4 represents complete kill, read-out: log reduction after 4 hr): 0 | log reduction at 500 ppm ([4]; 500 ppm, 1 hr contact, 4 represents complete kill, read-out: log reduction after 1 hr): 2 to 3 | log reduction at 250 ppm [4, 7]: 1 | log reduction at 250 ppm [4, 8]: 1 to 2 | MBC ([4]; Example 4, read-out: concentration for complete kill of planktonic SRB (not achieved at concentrations as high as)): > 500 µg/mL | log reduction at 5 ppm [3, 5]: 0.8 | log reduction at 5 ppm [3, 6]: 5.1 | log reduction at 10 ppm [3, 5]: 1.4 | log reduction at 10 ppm [3, 6]: 5.1 | log reduction at 25 ppm [3, 5]: 5.1 | log reduction at 25 ppm [3, 6]: 5.1 | effectiveness versus glutaraldehyde and formaldehyde ([3]; aerobic biofilm, Example 1): outperformed both glutaraldehyde and formaldehyde | MIC (K. pneum.): 0.25 mMole % | MIC (C. albic.): 0.25 mMole %

COc1cccc(C=O)c1O [OVA, ortho-vanillin]
MIC (P. vulg.): 0.25 mMole % | MIC (P. aerug.): 0.5 mMole % | log reduction at 50 ppm [1, 5]: 0 | log reduction at 50 ppm [1, 6]: 0 | log reduction at 100 ppm [1, 5]: 0 | log reduction at 100 ppm [1, 6]: 0 | log reduction at 200 ppm [1, 5]: 0.3 | log reduction at 200 ppm [1, 6]: 0.3 | MIC (S. aureus): 0.5 mMole % | MIC (K. pneum.): 0.25 mMole % | MIC (C. albic.): 0.25 mMole %

O=Cc1ccccc1O [SA, salicylaldehyde]
MIC (P. vulg.): 0.25 mMole % | MIC (P. aerug.): 0.25 mMole % | log reduction at 50 ppm [1, 5]: 0 | log reduction at 50 ppm [1, 6]: 0 | log reduction at 100 ppm [1, 5]: 0 | log reduction at 100 ppm [1, 6]: 0 | log reduction at 200 ppm [1, 5]: 0.2 | log reduction at 200 ppm [1, 6]: 0.2 | MIC (S. aureus): 0.25 mMole % | MIC (K. pneum.): 0.25 mMole % | MIC (C. albic.): 0.25 mMole %

— patent US5128051A, “Method for the control of biofouling” (Union Carbide Chemicals & Plastics Technology Corporation, priority 1991, dated 1992)
